Assay [1] relates to Mek1/2 activation in K562 cells. Nature of the assay: Western blot of phosphorylated and total Mek1/2. Format: cell-based, human. To be noted: 50 μM, 5 minutes treatment. The procedure: (§1) K562 leukemia cells were serum starved for 18 hours prior to cucurbitacin B treatment. The cells were incubated at a 75-mm culture flask filled with 10 ml growth medium (RPMI with 10% FBS and 1% PS) at the cell density of 1×10^5 cells/ml in the presence or absence of cucurbitacin B for various time intervals. The drug treatment were terminated by centrifugation at 1500 rpm for 5 minutes and the cells were rinsed twice with phosphate-buffered saline and lysed at 4° C. in a lysis buffer containing 50 mM Tris-HCl, pH7.5, […], 5 mM EDTA, 40 mM NaP2O7, 1% Triton X-100, 1 mM dithiothreitol, […], 100 μM phenylmethylsulfonyl fluoride, 2 μg/ml leupeptin, 4 μg/ml aprotinin and 0.7 μg/ml pepstatin. The insoluble protein lysate were removed by centrifugation for 10 minutes at 13000 rpm. Fifteen micrograms of protein lysate was resolved using SDS-polyacryamide gel electrophoresis (PAGE) (usually 8%-12% polyacrylamide gel) and then subjected to western blot analysis. Western blots were performed with antibodies specific for phosphorylated and total Stat3, c-Raf, Mek, and Erk. […]
(§2) In order to further investigate if cucurbitacin B block the Stat3 activation is truly through Erk pathway in K562 cells, the ability of cucurbitacin B to inhibit the Ras/Raf/Mek/Erk pathway was determined by measuring Ras-GTP, phosphorylation of c-Raf, Mek1/2, Erk1/2 and Elk-1 in K562 cells. […]

For assay [2], the system named is c-Raf activation in K562 cells. Description: Western blot of phosphorylated and total c-Raf. Format: cell-based, human. To be noted: 50 μM, 5 minutes treatment. As to the method: as §1, §2
Assay [3] has as its system Human leukemia cell lines CCRF-CEM, K562, MOLT-4, RPMI-8226 and SR. Nature of the assay: Cell proliferation assay using SRB, 5 human leukemia cell lines. The assay is classed as cell-based. To be noted: 48 hours treatment, range over the 5 cell lines, read-out: GI50 (growth inhibition), all leukemia cell lines. As to the method: (§3) Human leukemia cell lines CCRF-CEM, K562, MOLT-4, RPMI-8226 and SR, purchased from the National Cancer Institute (NCI), were cultured in RPMI 1640 medium supplemented with 5% (v/v) fetal […] and 100 units/ml penicillin and 100 units/ml streptomycin in a humidified 5% CO2 atmosphere at 37° C.
(§4) All 5 human leukemia cells were screened by the cell proliferation assay using SRB to quantitative cell protein mass following cucurbitacin B treatment. The experiments were repeated in triplicate. Appropriate number of cells (depends on the doubling time of cells) were seeded into a 96-well tissue culture plate and growth in the indicated medium in presence of different dosages of cucurbitacin B for 2 days. Afterwards 25 μl 80% TCA reagent was added into each well to fix the cells and the plates were incubated at 4° C. at least for 1 hour. Then the plates were washed with tap water and air dried. […] The plates were air dried and dissolved by 100 μl 10 mM Trizma-base solution and the absorbance was measured at 515 nm using FLUOstar OPTIMA equipment.
(§5) Appropriate number of cell density were seeded into a 96 well culture plate and treated with different doses of cucurbitacin B for 2 days. The growth inhibition effects of cucurbitacin B on the cells were detected using SRB.

In assay [4] the test system is K562 cells. Nature of the assay: Cell morphology by microscopy (Leica DMIL, 400x). The assay is classed as cell-based, human. To be noted: 48 hours. As to the method:
(§6) 10^5/ml K562 cells were treated with cucurbitacin B in the presence of complete medium containing 10% FBS for 48 hours. The changes in cell morphology were visualized using Leica DMIL (Leica Microsystem). Cells were harvested and rinsed twice with ice-cold PBS (pH7.4) and a total 2.5×10^5 K562 cells were stained with 10 μl Annexin V and 10 μl propidium iodide in 100 μl 1× binding buffer for 15 minutes in dark and then subjected to apoptosis analysis with FACSCalibar Flow cytometer system (FACS Calibur BD Flow Cytometer).
After 48 hours of cucurbitacin B treatment, the cells were viewed using a Leica DMIL microscope at 400× magnification. […] However, the treated cells lost the rounded shape and shrank in size at the highest dose of cucurbitacin B used (80 nM).

The test system of assay [5] is Stat3 activation in K562 cells. Description: Western blot of phosphorylated and total Stat3. The assay is classed as cell-based, human. To be noted: 50 μM. As to the method:
K562 leukemia cells were serum starved for 18 hours prior to cucurbitacin B treatment. The cells were incubated at a 75-mm culture flask filled with 10 ml growth medium (RPMI with 10% FBS and 1% PS) at the cell density of 1×10^5 cells/ml in the presence or absence of cucurbitacin B for various time intervals. The drug treatment were terminated by centrifugation at 1500 rpm for 5 minutes and the cells were rinsed twice with phosphate-buffered saline and lysed at 4° C. in a lysis buffer containing 50 mM Tris-HCl, pH7.5, […], 5 mM EDTA, 40 mM NaP2O7, 1% Triton X-100, 1 mM dithiothreitol, […], 100 μM phenylmethylsulfonyl fluoride, 2 μg/ml leupeptin, 4 μg/ml aprotinin and 0.7 μg/ml pepstatin. The insoluble protein lysate were removed by centrifugation for 10 minutes at 13000 rpm. Fifteen micrograms of protein lysate was resolved using SDS-polyacryamide gel electrophoresis (PAGE) (usually 8%-12% polyacrylamide gel) and then subjected to western blot analysis. Western blots were performed with antibodies specific for phosphorylated and total Stat3, c-Raf, Mek, and Erk. The blots were developed with the Enhanced Chemiluminescence Plus (ECL Plus) detection system (Amersham).
15 μg cell lysate of each sample was separated in 8% SDS-PAGE followed by immuno-blotting with anti-Stat3 antibodies to detect the phosphorylated form of Stat3 as well as its total expression level.
Cells were serum starved for 18 hours followed by treated with 50 μM cucurbitacin B for 10 minutes, 30 minutes, 1 hour and 4 hours, respectively. 15 μg cell lysate of each sample was separated in 8% SDS-PAGE followed by immuno-blotting with anti-Stat3 antibodies to detect the phosphorylated form of Stat3 as well as its total expression level.
A general note: Immunoblotting shows a protein as a band on a membrane.

Assay [6] relates to Elk-1 activation in K562 cells. Nature of the assay: Phosphorylation of Elk-1. Format: cell-based, human. To be noted: 50 μM, 5 minutes treatment. The procedure: In order to further investigate if cucurbitacin B block the Stat3 activation is truly through Erk pathway in K562 cells, the ability of cucurbitacin B to inhibit the Ras/Raf/Mek/Erk pathway was determined by measuring Ras-GTP, phosphorylation of c-Raf, Mek1/2, Erk1/2 and Elk-1 in K562 cells. The cells were incubated with 50 μM cucurbitacin B for the indicated time intervals (2 minutes, 5 minutes, 10 minutes, 30 minutes, 1 hour and 4 hours). 15 μg cell lysates were subjected to western blot analysis for phosphorylation and total c-Raf, Mek1/2, Erk1/2.

In another assay the test system is K562. Nature of the assay: Cell proliferation assay using SRB, K562. The assay is classed as cell-based. To be noted: Homo sapiens, K562, 48 hours treatment, read-out: GI50 (growth inhibition). The procedure: as §3, §4, §5
Assay [7] relates to K562 cells. Nature of the assay: Flow cytometry for cell cycle analysis (PI). To be noted: 80 nM, 48 hours, K562, serum starved 24 hours. Format: cell-based, human. The procedure: K562 cells were serum starved for 24 hours prior to cucurbitacin B treatment. After 48 hours of treatment, the cells were collected and rinsed twice with phosphate-buffer saline and fixed with 80% ice-cold ethanol for 1 hour at 4° C. overnight.
Then, the cells were stained with propidium iodine at 1 mg/ml for 15 minutes at room temperature. The stained cells were analyzed by flow cytometry (FACS Calibur BD Flow Cytometer)
Appropriate numbers of cell density were serum starved for 24 hours prior to treatment with different doses of cucurbitacin B for 2 days. The cell cycle analysis profile of K562 cells after cucurbitacin B treatment were detected using Flow Cytometry analysis after fixed with 80% ice-cold ethanol at 4° C. and then stained with PI for 15 minutes.

Assay [8] concerns Raf/Mek/Erk pathway in K562 cells. Description: Western blot, Raf/Mek/Erk pathway as a whole. To be noted: 50 μM, after 4 hours of treatment. The assay is classed as cell-based, human. The procedure:
as §1, §2

Assay [9] deals with K562 cells. Description: Flow cytometry for apoptosis analysis (Annexin V / PI). The assay is classed as cell-based, human. To be noted: 80 nM, 48 hours, K562, Anx.V/PI. The procedure: as §6
Appropriate number of cell density were seeded into T-25 culture flask and treated with different doses of cucurbitacin B for 2 days. The apoptotic effects of cucurbitacin B on the cells were detected using Flow Cytometry analysis after stained with Anx.V and PI for 15 minutes. […] Cucuribitacin B induced apoptosis in a dose dependent manner, among them, 80 nM induced the highest apoptotic effect in K562 cells, with over 50% cells in apoptotic population and 10% cells in the necrotic population (late apoptotic and necrotic phase). The effect of cucurbitacin B on apoptosis and cell cycle profile in K562 cells were analyzed using flow cytometry, as depicted in FIG. 3.

In assay [10] the test system is Erk1/2 activation in K562 cells. Description: Western blot of phosphorylated and total Erk1/2. To be noted: 50 μM, 5 minutes treatment. Format: cell-based, human. The procedure:
as §1, §2

In assay [11] the test system is Ras-GTP activation in K562 cells. Description: GTPase pull-down assay (GST-Raf1-RBD), Ras-GTP content. Format: cell-based, human. To be noted: 50 μM, 2 minutes to 4 hours. The procedure: Lysate with 500 μg protein were used to determined the Ras-GTP content by the Glutathione S-transferase (GST)-RBD (Ras-binding domain of Raf) pull down assay. The treated and control cells were lysed in lysis buffer (25 mMTris-HCl, pH7.5, 150 mM NaCl, 5 mMMgCl2, 1% NP-40, 1 mM DTT and 5% glycerol) for 5 minutes at 4° C. Soluble cell lysates were obtained by centrifuged at 17000 g for 5 minutes. 500 μg cell lysate were collected and incubated with 80 μg GST-Raf1-RBD in 50 mM Tris-HCl, pH7.2, 150 mMNaCl, 0.5% Triton X-100, 5 mMMgCl2, 1 mMDTT and 10% glycerol for 1 hour at 4° C. The beads were washed with lysis buffer for 3 times and then resuspended and boiled in 2× sample buffer at 100° C. for 5 minutes. 25 μl supernatants were collected by centrifuged at 7200 g for 2 minutes and then resolved in 15% SDS-PAGE followed by western blot analysis using anti-Ras antibody.
In order to further investigate if cucurbitacin B block the Stat3 activation is truly through Erk pathway in K562 cells, the ability of cucurbitacin B to inhibit the Ras/Raf/Mek/Erk pathway was determined by measuring Ras-GTP, phosphorylation of c-Raf, Mek1/2, Erk1/2 and Elk-1 in K562 cells. The cells were incubated with 50 μM cucurbitacin B for the indicated time intervals (2 minutes, 5 minutes, 10 minutes, 30 minutes, 1 hour and 4 hours). […]

One molecule from patent US20080234244A1, “CU[…] AND USES THEREOF” (priority 2007, published 2008) can be followed below.

Take `CC(=O)OC(C)(C)/C=C/C(=O)[C@](C)(O)C1[C@H](O)C[C@@]2(C)C3CC=C4C(C[C@H](O)C(=O)C4(C)C)[C@]3(C)C(=O)C[C@]12C` (some centres unmarked) [cucurbitacin B]: the “inhibition of activation of Mek1/2” value in [1] is listed as “significantly inhibited”. Also, the “inhibition of activation of c-Raf” value in assay [2] is given as “significantly inhibited”. Moreover, the figures for the GI50 (in assay [3]; with K562) were 15.6 to 35.3 nM and 15.6 nM, respectively. The “change in cell morphology” value in the assay on K562 cells [4] (20 nM and 40 nM) is given as “increase in cell size”; in the assay on K562 cells [4] (80 nM), “shrinkage of cell size”. Moreover, the “time of peak inhibition of Stat3 activation” value in [5] is 4 h. The “inhibition of Stat3 activation, time course” value in assay [5] (10 minutes to 30 minutes) is listed as “No significant change”; in assay [5] (1 hour treatment), “inhibited Stat3 activation”. Moreover, in assay [5] (4 hours, only the highest of 1, 5, 50 μM), the “inhibition of Stat3 activation (phospho-Stat3)” value is “significant inhibited”. The “inhibition of activation of Elk-1” value in assay [6] is recorded as “significantly inhibited”. Further, the “percentage of cells in the G2/M phase” value in the assay on K562 cells [7] is given as 70%. Besides, the “inhibition of the Raf/Mek/Erk pathway” value in assay [8] is recorded as “Complete inhibition”. Besides, in the assay on K562 cells [9], the “cells in apoptotic population” value is reported as “over 50%”. For the same molecule, the “cells in the necrotic population (late apoptotic and necrotic phase)” value with K562 cells [9] is 10%. Besides, in assay [10], the “inhibition of activation of Erk1/2” value was “significantly inhibited”. For the same molecule, in assay [11], the “change of Ras-GTP activation” value was “no significant change”.
